Test results taken from patent publication US11242335B2, “Fluorine-substituted indazole compounds and uses thereof” (SUNSHINE LAKE PHARMA CO., LTD., priority 2017, dated 2022).

Molecular target: T1, soluble guanylate cyclase (sGC) expressed by CHO-K1-Rat sGC monoclonal cell line (Rattus norvegicus, UniProt P19686+P20595)
T1 construct: expressed in transfected cells; host or cells: CHO-K1
T1 sequence (P19686 1-690): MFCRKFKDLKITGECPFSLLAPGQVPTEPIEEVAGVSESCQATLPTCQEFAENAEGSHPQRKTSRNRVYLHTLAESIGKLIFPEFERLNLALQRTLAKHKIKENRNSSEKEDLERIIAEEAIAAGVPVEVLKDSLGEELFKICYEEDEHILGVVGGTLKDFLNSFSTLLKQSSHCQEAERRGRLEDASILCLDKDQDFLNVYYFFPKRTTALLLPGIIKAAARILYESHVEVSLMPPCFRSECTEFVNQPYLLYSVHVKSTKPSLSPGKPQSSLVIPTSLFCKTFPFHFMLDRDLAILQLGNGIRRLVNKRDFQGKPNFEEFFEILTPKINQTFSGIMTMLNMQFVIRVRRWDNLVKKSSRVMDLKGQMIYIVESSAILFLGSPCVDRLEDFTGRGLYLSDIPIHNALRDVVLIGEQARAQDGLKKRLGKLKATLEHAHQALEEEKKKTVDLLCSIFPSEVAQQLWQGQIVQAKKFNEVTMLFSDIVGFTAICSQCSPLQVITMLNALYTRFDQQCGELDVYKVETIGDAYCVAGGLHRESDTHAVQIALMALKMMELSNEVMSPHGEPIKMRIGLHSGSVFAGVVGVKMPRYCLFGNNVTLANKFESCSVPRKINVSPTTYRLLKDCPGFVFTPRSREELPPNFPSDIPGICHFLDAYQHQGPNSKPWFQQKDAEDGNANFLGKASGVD
T1 sequence (P20595 1-619): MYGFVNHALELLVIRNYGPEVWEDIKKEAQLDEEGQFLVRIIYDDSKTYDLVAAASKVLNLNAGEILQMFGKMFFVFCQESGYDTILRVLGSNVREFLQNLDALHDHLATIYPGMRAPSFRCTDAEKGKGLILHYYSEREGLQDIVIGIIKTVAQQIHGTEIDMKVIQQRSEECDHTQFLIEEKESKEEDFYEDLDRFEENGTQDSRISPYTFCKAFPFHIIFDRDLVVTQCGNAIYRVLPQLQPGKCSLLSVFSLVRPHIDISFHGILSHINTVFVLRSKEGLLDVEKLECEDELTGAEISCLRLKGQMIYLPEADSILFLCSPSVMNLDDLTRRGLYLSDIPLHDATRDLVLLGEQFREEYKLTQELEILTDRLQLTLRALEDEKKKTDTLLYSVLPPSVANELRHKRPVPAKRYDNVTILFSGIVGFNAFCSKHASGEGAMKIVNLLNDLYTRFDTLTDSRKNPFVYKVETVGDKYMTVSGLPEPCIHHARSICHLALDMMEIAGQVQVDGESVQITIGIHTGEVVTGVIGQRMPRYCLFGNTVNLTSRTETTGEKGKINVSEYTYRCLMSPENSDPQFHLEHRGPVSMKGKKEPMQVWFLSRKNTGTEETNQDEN
Assay: Effect on recombinant guanylate cyclase reporter cell line (CHO-K1-Rat sGC, Cisbio cGMP HTRF)
Type: cell-based
Settings: activating soluble guanylate cyclase
Source text: Transfection of Soluble Guanylate Cyclase (sGC) gene into CHO-K1 cells and selection of cells with stably and highly expressed sGC: Rat sGCα1 and Rat sGCβ1 Genes were synthesized, and then pcDNA3.1(+)-rat sGCα1 and pcDNA3.1/Hygro (+)-rat sGCβ1 plasmid were constructed; the plasmid was co-transfected into CHO-K1 cells, and a positive clone cell line stably expressing CHO-K1-Rat sGC was selected using the Cisbio cGMP HTRF assay kit.
The activity of the compound on the CHO-K1-Rat sGC monoclonal cell line was determined: The CHO-K1-Rat sGC monoclonal cell line was cultured, and used for test operation at degree of fusion of about 70% to 90%. The cells were resuspended in complete medium after TrypLE digestion; the cells were inoculated in a 384-well (low volume tissues culture treated) cell culture plate at a seeding density of 7500/well in 25 μL of complete medium and incubated at 37° C. in 5% CO2 atmosphere for 20 hours; the test compounds were dissolved and dilute with DMSO to give 10 concentration gradients (2× working concentration); 384-well cell culture plates were centrifugated (200 g) for 3 seconds by inversion at RT, medium was removed; The test compounds in each different concentration gradient and corresponding reagent were added into each cell well according to the detection process of Cisbio cGMP HTRF assay kit. The data were collected with Envision HTRF detector and the EC50 value of each compound in activating soluble guanylate cyclase was calculated.

Row | EC50 [nM] | SMILES
1 | 680 | Nc1nc(-c2nn(Cc3ccccc3F)c3cc(F)ccc23)nc(N)c1NC1CCOC1 (stereo not drawn) [Example 9, 2-(6-fluoro-1-(2-fluorobenzyl)-1H-indazol-3-yl)-N^5-(tetrahydrofuran-3-yl) pyrimidine-4,5,6-triamine]
2 | 120 | Nc1nc(-c2nn(Cc3ccccc3F)c3c(F)cccc23)nc(N)c1NC1CCOC1 (stereo not drawn) [Example 12, 2-(7-fluoro-1-(2-fluorobenzyl)-1H-indazol-3-yl)-N^5-(tetrahydrofuran-3-yl)pyrimidine-4,5,6-triamine]
3 | 62 | Nc1nc(-c2nn(Cc3ccccc3F)c3c(F)cccc23)nc(N)c1N1CCOCC1 [Example 14, 2-(7-fluoro-1-(2-fluorobenzyl)-1H-indazol-3-yl)-5-morpholinopyrimidine-4,6-diamine]
4 | 690 | Nc1nc(-c2nn(Cc3ccccc3F)c3c(F)cccc23)nc(N)c1NC(=O)C1CCCO1 (stereo not drawn) [Example 16, N-(4,6-diamino-2-(7-fluoro-1-(2-fluorobenzyl)-1H-indazol-3-yl)pyrimidin-5-yl)tetrahydrofuran-2-carboxamide]
5 | 420 | Nc1nc(-c2nn(Cc3ccccc3F)c3c(F)cccc23)nc(N)c1NC(=O)C1CCCCO1 (stereo not drawn) [Example 17, N-(4,6-diamino-2-(7-fluoro-1-(2-fluorobenzyl)-1H-indazol-3-yl)pyrimidin-5-yl)tetrahydro-2H-pyran-2-carboxamide]
6 | 860 | Oc1nc(-c2nn(Cc3ccccc3F)c3c(F)cccc23)ncc1F [Example 25, 5-fluoro-2-(7-fluoro-1-(2-fluorobenzyl)-1H-indazol-3-yl)pyrimidin-4-ol]
7 | 100 | CC(C)(O)CNc1c(N)nc(-c2nn(Cc3ccccc3F)c3c(F)cccc23)nc1N [Example 26, 1-((4,6-diamino-2-(7-fluoro-1-(2-fluorobenzyl)-1H-indazol-3-yl)pyrimidin-5-yl)amino)-2-methylpropan-2-ol]
8 | 94 | CC(Nc1c(N)nc(-c2nn(Cc3ccccc3F)c3c(F)cccc23)nc1N)C1CCOCC1 (stereo not drawn) [Example 28, 2-(7-fluoro-1-(2-fluorobenzyl)-1H-indazol-3-yl)-N^5-(1-(tetrahydro-2H-pyran-4-yl)ethyl)pyrimidine-4,5,6-triamine]
9 | 820 | Nc1nc(-c2nn(Cc3ccccc3F)c3c(F)cccc23)ncc1C(=O)O [Example 30, 4-amino-2-(7-fluoro-1-(2-fluorobenzyl)-1H-indazol-3-yl)pyrimidine-5-carboxylic acid]
10 | 35 | Nc1nc(-c2nn(Cc3ccccc3F)c3c(F)cccc23)ncc1C(=O)NC1CC1 [Example 31, 4-amino-N-cyclopropyl-2-(7-fluoro-1-(2-fluorobenzyl)-1H-indazol-3-yl) pyrimidine-5-carboxamide]
11 | 89 | CNC(=O)c1cnc(-c2nn(Cc3ccccc3F)c3c(F)cccc23)nc1N [Example 32, 4-amino-2-(7-fluoro-1-(2-fluorobenzyl)-1H-indazol-3-yl)-N-methyl pyrimidine-5-carboxamide]
12 | 810 | COC(=O)N(C)c1c(N)nc(-c2nn(Cc3cncnc3)c3c(F)cccc23)nc1N [Example 34, methyl (4,6-diamino-2-(7-fluoro-1-(pyrimidin-5-ylmethyl)-1H-indazol-3-yl)pyrimidin-5-yl)(methyl)carbamate]
13 | 760 | Nc1nc(-c2nn(Cc3ccccc3F)c3c(F)cccc23)nc(N)c1C(=O)O [Example 42, 4,6-diamino-2-(7-fluoro-1-(2-fluorobenzyl)-1H-indazol-3-yl)pyrimidine-5-carboxylic acid]
14 | 340 | Nc1nc(-c2nn(Cc3ccccc3F)c3c(F)cccc23)nc(N)c1C(=O)NC1CC1 [Example 44, 4,6-diamino-N-cyclopropyl-2-(7-fluoro-1-(2-fluorobenzyl)-1H-indazol-3-yl) pyrimidine-5-carboxamide]
15 | 160 | CN(C)C(=O)c1cnc(-c2nn(Cc3ccccc3F)c3c(F)cccc23)nc1N [Example 45, 4-amino-2-(7-fluoro-1-(2-fluorobenzyl)-1H-indazol-3-yl)-N,N-dimethyl pyrimidine-5-carboxamide]
16 | 200 | Nc1nc(-c2nn(Cc3ccccc3F)c3c(F)cccc23)ncc1C(=O)N1CCOCC1 [Example 46, (4-amino-2-(7-fluoro-1-(2-fluorobenzyl)-1H-indazol-3-yl)pyrimidin-5-yl) (morpholino)methanone]
17 | 120 | Nc1nc(-c2nn(Cc3ccccc3F)c3c(F)cccc23)ncc1C(=O)N1CCCC1 [Example 47, (4-amino-2-(7-fluoro-1-(2-fluorobenzyl)-1H-indazol-3-yl)pyrimidin-5-yl) (pyrrolidin-1-yl)methanone]
18 | 270 | Nc1nc(-c2nn(Cc3ccccc3F)c3c(F)cccc23)ncc1C(=O)NCCO [Example 49, 4-amino-2-(7-fluoro-1-(2-fluorobenzyl)-1H-indazol-3-yl)-N-(2-hydroxyethyl)pyrimidine-5-carboxamide]
19 | 420 | Nc1nc(-c2nn(Cc3ccccc3F)c3c(F)cccc23)ncc1C(=O)N1CCS(=O)(=O)CC1 [Example 51, (4-amino-2-(7-fluoro-1-(2-fluorobenzyl)-1H-indazol-3-yl)pyrimidin-5-yl) (1,1-dioxidothiomorpholino)methanone]
20 | 110 | Nc1nc(-c2nn(Cc3ccccc3F)c3c(F)cccc23)ncc1C(=O)N1CCC(F)(F)CC1 [Example 52, (4-amino-2-(7-fluoro-1-(2-fluorobenzyl)-1H-indazol-3-yl)pyrimidin-5-yl) (4,4-difluoropiperidin-1-yl)methanone]
21 | 390 | CN1CCN(C(=O)c2cnc(-c3nn(Cc4ccccc4F)c4c(F)cccc34)nc2N)CC1 [Example 53, (4-amino-2-(7-fluoro-1-(2-fluorobenzyl)-1H-indazol-3-yl)pyrimidin-5-yl) (4-methylpiperazin-1-yl)methanone]
22 | 140 | Nc1nc(-c2nn(Cc3ccccc3F)c3c(F)cccc23)ncc1C(=O)N1CC(O)C1 [Example 54, (4-amino-2-(7-fluoro-1-(2-fluorobenzyl)-1H-indazol-3-yl)pyrimidin-5-yl) (3-hydroxyazetidin-1-yl)methanone]
23 | 340 | CNC(=O)c1cnc(-c2nn(Cc3ccccc3F)c3c(F)cccc23)nc1 [Example 56, 2-(7-fluoro-1-(2-fluorobenzyl)-1H-indazol-3-yl)-N-methylpyrimidine-5-carboxamide]
24 | 79 | O=C(NC1CC1)c1cnc(-c2nn(Cc3ccccc3F)c3c(F)cccc23)nc1 [Example 57, N-cyclopropyl-2-(7-fluoro-1-(2-fluorobenzyl)-1H-indazol-3-yl)pyrimidine-5-carboxamide]
25 | 58 | OCCCNc1nc(-c2nn(Cc3ccccc3F)c3c(F)cccc23)ncc1F [Example 59, 3-((5-fluoro-2-(7-fluoro-1-(2-fluorobenzyl)-1H-indazol-3-yl)pyrimidin-4-yl)amino)propan-1-ol]
26 | 120 | OCCNc1nc(-c2nn(Cc3ccccc3F)c3c(F)cccc23)ncc1F [Example 60, 2-((5-fluoro-2-(7-fluoro-1-(2-fluorobenzyl)-1H-indazol-3-yl)pyrimidin-4-yl)amino)ethanol]
27 | 75 | OCCN1CCN(c2nc(-c3nn(Cc4ccccc4F)c4c(F)cccc34)ncc2F)CC1 [Example 62, 2-(4-(5-fluoro-2-(7-fluoro-1-(2-fluorobenzyl)-1H-indazol-3-yl)pyrimidin-4-yl)piperazin-1-yl)ethanol]
